# Data published in patent US6596308B2, “Controlled release pharmaceutical composition” (Kos Pharmaceuticals, Incorporated, priority 2001, dated 2003).
# Test: dissolution release of hard shell capsule formulations, USP Basket Method (Apparatus 1)
smiles,measurement,setting,value
CC[C@H](C)C(=O)O[C@H]1C[C@@H](C)C=C2C=C[C@H](C)[C@H](CC[C@@H]3C[C@@H](O)CC(=O)O3)[C@H]21 [lovastatin],"time in which lovastatin was completely released (in vitro release, FIG. 2)","Precirol ATO5 capsule systems containing the fast hydrating Methocel polymers, water with 1% sodium dodecyl sulfate, 37° C., 100 RPM",4 h
same,"period over which sustained release of lovastatin was obtained (in vitro release, FIG. 2)","Precirol ATO5 capsule systems containing the non-hydrating Ethocel, water with 1% sodium dodecyl sulfate, 37° C., 100 RPM",24 h
same,rank order of release rate by cellulose polymer (FIG. 1),"lovastatin, Compritol 888 capsule system, fastest hydrating polymers gave faster release",Methocel K>Methocel E>Ethocel
same,"release of lovastatin by type of cellulosic polymer, compritol formulation","lovastatin, compritol, Methocel K100M vs Ethocel P20",released considerably faster from a formulation of Methocel K100M than Ethocel P20
same,"release of lovastatin by type of cellulosic polymer, precirol formulation","lovastatin/precirol, Methocel K100M vs Ethocel P20",faster when the formulation contains Methocel K100M than Ethocel P20
same,release of lovastatin by type of high melting fatty acid ester,"same cellulose (methocel) component, prolonged period of about 24 hours","fastest with Precirol AT05, slowest with Compritol 888"
